Measurements: patent US20260085101A1, “NOVEL PLATELET DERIVED GROWTH FACTOR PEPTIDE MIMETIC” (THE UNIVERSITY OF SYDNEY, priority 2022, published 2026)

Legend:
Format in all cases: cell-based
[1] = molecular target: T1, PDGF receptor (Mus musculus, UniProt P05622); experiment: Western blot for phosphorylation of ERK in C2C12 cells (PDGF receptor activation); conditions: 10 ng/ml PDGF, 1 μg/ml peptide, vs no treatment and AG1296+PDGF−AB controls
T1 construct: Phosphorylation of ERK following treatment of C2C12 Cells with PDGF and JC5; endogenous in cells; host or cells: C2C12 mouse myoblasts
T1 sequence (P05622 32-1098): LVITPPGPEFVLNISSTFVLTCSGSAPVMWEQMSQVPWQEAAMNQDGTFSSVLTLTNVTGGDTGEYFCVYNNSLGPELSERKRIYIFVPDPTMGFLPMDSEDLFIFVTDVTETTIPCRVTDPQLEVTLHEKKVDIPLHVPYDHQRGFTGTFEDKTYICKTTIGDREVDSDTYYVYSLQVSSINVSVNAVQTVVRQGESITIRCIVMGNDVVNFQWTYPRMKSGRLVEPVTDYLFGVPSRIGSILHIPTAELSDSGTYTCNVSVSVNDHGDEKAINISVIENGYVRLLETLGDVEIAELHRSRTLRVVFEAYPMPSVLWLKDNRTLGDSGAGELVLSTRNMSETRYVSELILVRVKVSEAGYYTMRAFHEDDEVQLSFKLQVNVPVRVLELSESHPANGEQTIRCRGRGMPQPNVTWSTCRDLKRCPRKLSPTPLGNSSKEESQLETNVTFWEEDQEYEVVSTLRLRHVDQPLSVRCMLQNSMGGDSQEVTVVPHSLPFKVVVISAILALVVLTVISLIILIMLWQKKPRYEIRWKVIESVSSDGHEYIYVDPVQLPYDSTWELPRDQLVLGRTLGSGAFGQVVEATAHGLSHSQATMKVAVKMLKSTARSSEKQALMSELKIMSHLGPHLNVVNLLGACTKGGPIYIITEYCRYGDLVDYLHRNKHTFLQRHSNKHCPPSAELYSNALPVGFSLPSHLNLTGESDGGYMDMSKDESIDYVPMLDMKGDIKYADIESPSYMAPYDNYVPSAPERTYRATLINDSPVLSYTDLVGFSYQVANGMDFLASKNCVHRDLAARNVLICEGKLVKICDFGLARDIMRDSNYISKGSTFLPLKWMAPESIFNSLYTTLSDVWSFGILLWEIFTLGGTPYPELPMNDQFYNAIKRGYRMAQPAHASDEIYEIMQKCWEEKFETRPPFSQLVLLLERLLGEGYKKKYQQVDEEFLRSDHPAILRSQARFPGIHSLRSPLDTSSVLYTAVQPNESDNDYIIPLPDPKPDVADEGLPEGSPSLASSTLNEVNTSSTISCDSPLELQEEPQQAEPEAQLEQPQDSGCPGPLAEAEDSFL
Experimental: FIG. 5. Phosphorylation of ERK following treatment of C2C12 Cells with PDGF and JC5. Western blots for total (ERK) and phosphorylated ERK (pERK) at 42 and 44 kDa show an increase in phosphorylation following treatment with 10 ng/ml PDGF−BB and 1 μg/ml of JC5. FIG. 6. Phosphorylation of ERK following treatment of C2C12 Cells with PDGF and JC5a. Western blots for total (ERK) and phosphorylated ERK (pERK) at 42 and 44 kDa show an increase in phosphorylation 10 minutes post treatment with 10 ng/ml PDGF−BB and 1 μg/ml of novel mimetic peptide JC5a. JC5a maintained this increased phosphorylation of ERK at 30 minutes post treatment. PDGF receptor activation takes place via autophosphorylation of tyrosine […] residues at key sites throughout the intracellular domain. Autophosphorylation engages different signaling pathways, including ERK (MAPK) which participates in proliferation, cell survival, angiogenesis, and chemotactic activity of cells. Phosphorylation of ERK indicates successful activation of the PDGF receptor.

[2] = tested on: primary human coronary artery endothelial cells (HCAECs); experiment: Vascular tube forming assay on Geltrex; conditions: 24 hours
Experimental: FIG. 4. Tube formation of Human Coronary Artery Endothelial Cells Treated with PDGF and PDGF Mimetic Peptide JC5. Human coronary artery endothelial cells treated with 50 ng/ml of PDGF−AB and PDGF−BB produced longer tubes than untreated cells and cells treated with the PDGF receptor inhibitor AG1296+PDGF−AB. […] Error bars represent ±SD, n=3/group.
PDGF has a well-established role in angiogenesis in vivo. To simulate this function in vitro a vascular tube forming assay on primary human coronary artery endothelial cells (HCAECs) was carried out. Cells were seeded on top of 3D growth factor reduced Geltrex basement membrane extract and incubated for 24 hours following treatment with the PDGF−AB, PDGF-BB, no treatment control, AG1296+PDGF−AB negative control, and peptides JC5 and JC5a. Over the course of 24 hours the cells form tubes throughout the gel. PDGF is reported to facilitate tube formation of endothelial cells in in vitro 3D assays.
Cells treated with 50 ng/ml of PDGF−AB, PDGF-BB, and 5 μg/ml of JC5 produced longer more uniform tubes than untreated cells and cells treated with the negative control 10 μM PDGF receptor inhibitor AG1296 co-treated with 50 ng/ml PDGF−AB (FIG. 4). The positive controls PDGF−AB and PDGF−BB produced tubes that were 560.7 μm (±53.93) and 616.3 μm (±39.07), respectively. […] The no treatment control and AG1296+PDGF−AB negative control produced tubes that were 305 μm and 307.7 μm, respectively. […] In summary, JC5 has similar vascular tube forming ability to recombinant human PDGF−AB and PDGF-BB.

[3] = tested on: C2C12 mouse myoblasts; experiment: Collagen gel contraction assay with C2C12 cells
Source text: FIG. 3. Collagen Contraction of C2C12 Mouse Fibroblasts Treated with PDGF and peptides JC5 and JC5a. […] Error bars represent ±SD, n=8/4. The function of Compounds Ia (also referred to herein as JC5) and Ib (also referred to herein as JC5a) has been tested in vitro on the continuous cell line, C2C12 mouse myoblasts. In these in vitro assays recombinant PDGF−AB and −BB have been used as positive controls along with a serum starved no treatment control and the PDGF receptor inhibitor AG1296 co-treated with PDGF−AB as a negative control. The in vitro assays were designed to assess the major known functions of PDGF whilst also considering functions that are relevant to its in vivo applications. These functions were chemotaxis, collagen contraction, vascular tube formation and activation of the PDGF receptors via phosphorylation of Akt and Erk. Collagen contraction is an important function during wound healing of many tissues including the heart. This can be simulated in vitro using a collagen gel contraction assay. This was assessed using C2C12 cells treated with the positive controls 10 ng/ml recombinant PDGF-BB and PDGF−AB, negative control 10 μM AG1296 co-treated with 10 ng/ml recombinant PDGF−AB, a serum starved no treatment control and 1 μg/ml of the peptides JC5 and JC5a. C2C12 mouse myoblasts were seeded in a 3D collagen gel crosslinked with NaOH and incubated at 37° C. for 24 hours following treatment with the four controls and peptides JC5 and JC5a.

[4] = tested on: C2C12 mouse myoblasts; experiment: Scratch migration (chemotaxis) assay on C2C12 cells
Experimental: FIG. 2. Migration of C2C12 Mouse […] Cells Treated with PDGF and peptides JC5 and JC5a. C2C12 mouse fibroblast cells migrate across the scratch over 24 hours. Cells were treated with 10 ng/ml PDGF−AB (n=6), PDGF−BB (n=6), and 1 μg/ml of novel PDGF mimetic JC5 (n=6) and JC5a (n=3). […] There was also no statistically significant difference between the PDGF mimetic peptides and PDGF−AB and −BB positive controls. Error bars represent ±SD. The function of Compounds Ia (also referred to herein as JC5) and Ib (also referred to herein as JC5a) has been tested in vitro on the continuous cell line, C2C12 mouse myoblasts. In these in vitro assays recombinant PDGF−AB and −BB have been used as positive controls along with a serum starved no treatment control and the PDGF receptor inhibitor AG1296 co-treated with PDGF−AB as a negative control. The in vitro assays were designed to assess the major known functions of PDGF whilst also considering functions that are relevant to its in vivo applications. These functions were chemotaxis, collagen contraction, vascular tube formation and activation of the PDGF receptors via phosphorylation of Akt and Erk. Chemotaxis was assessed by making a scratch through a 2D culture of C2C12 cells following treatment with the four controls and the peptides JC5 and JC5a. They were then incubated for 24 hours at 37° C. Migration of the cells across the scratch at the conclusion of the incubation was measured and compared to the relevant controls described above. PDGF is a well-established mediator of chemotaxis and is expected to increase migration of the cells across the scratch over the course of 24 hours post treatment.

[5] = tested on: C3H10T½ mouse embryonic fibroblasts; experiment: EdU proliferation assay (flow cytometry); conditions: C3H10T½ cells; 10 μM AG1296 with 20 ng/ml PDGF−BB
Experimental: FIG. 8. Proliferation of C3H10T½ Cells Following Treatment with PDGF and Novel PDGF Mimetic Peptides. Cultured C3H10T½ mouse embryonic fibroblast cells were treated with 20 ng/ml recombinant PDGF−AB or PDGF−BB protein ligands, and 2 μg/ml of novel PDGF mimetics JC5 or JC5a for 24 hr, in the presence of 1% fetal bovine serum (FBS). Percent proliferating cell was determined after a 2 hr pulse with nucleotide analogue EdU at the end of the incubation period. […] Co-treatment of protein/peptides with 10 μM of PDGF receptor antagonist, AG1296, confirmed that PDGF-BB-stimulated proliferation occurred via the PDGF ligand/receptor pathway. […] Error bars represent ±SD, n=3. Statistical analysis was using One-Way Anova: * p<0.05; ** p<0.01; *** p<0.001; **** p<0.0001. The mitotic effects of PDGF mimetic peptides JC5 and JC5a were tested using cultured C3H10T½ mouse embryonic fibroblasts. Proliferation was assayed after a pulse of nucleotide analogue 5-ethynyl-2′-deoxyuridine (EdU) and fluorescent detection using flow cytometry. Cells were treated with 20 ng/ml PDGF−BB or PDGF−AB, and 2 μg/ml of peptides JC5 or JC5a, in the presence of 1% fetal bovine serum (FBS) and DMEM for 24 hr. 10% FBS was used as a positive control, and co-treatments with specific PDGF receptor antagonist, AG1296, was used to ascertain whether proliferation occurred via the PDGF ligand/receptor pathway. Assays were performed in biological triplicate.

Row | Molecule | phosphorylation of ERK (pERK) [1] | tube length ([2]; 50 ng/ml PDGF, 5 μg/ml JC5, 10 μM AG1296, mean (±SD)) [μm] | increased tube length compared to the negative control (Mean Diff.) ([2]; vs AG1296+PDGF−AB (307.7 μm)) [μm] | increased tube length compared to the no treatment control (Mean Diff.) ([2]; vs no treatment control (305 μm)) [μm] | collagen gel contracted to % of its initial surface area ([3]; 24-hour incubation, 10 ng/ml PDGF, 1 μg/ml peptides, 10 μM AG1296, mean (±SD)) [%] | difference in collagen gel area versus negative control AG1296 co-treated with PDGF−AB (Mean Diff.) ([3]; 24 hours, vs negative control (55.25%)) [%] | difference in collagen gel area versus no treatment control (Mean Diff.) ([3]; 24 hours, vs no treatment control (41.27%)) [%] | migration of cells across the scratch ([4]; 24 hours at 37° C., 10 ng/ml PDGF, 1 μg/ml peptides, mean (±SD)) [%] | increase in migration compared to the negative control (Mean Diff) ([4]; 24 hours, vs AG1296+PDGF−AB negative control) [%] | increase in migration compared to the no treatment control (Mean Diff.) ([4]; 24 hours, vs no treatment control) [%] | effect of AG1296 co-treatment on PDGF−BB-stimulated EdU uptake [5]
1 | PDGF−BB: recombinant human PDGF-BB protein ligand, positive control | phosphorylation of ERK (pERK) can be seen | 616.3 | 308.7 | 311.3 | 23.42 | 31.83 | 17.86 | 75.02 | 58.45 | 54.70 | 
2 | COc1cc2ncc(-c3ccccc3)nc2cc1OC [AG1296, reference compound] |  |  |  |  |  |  |  |  |  |  | significantly inhibited
